Measured values published in paper PMC8583042, “New Hybrid Compounds Combining Fragments of Usnic Acid and Thioether Are Inhibitors of Human Enzymes TDP1, TDP2 and PARP1” (International Journal of Molecular Sciences, 2021).
Read-outs that look alike come from different tables or passages of the source.

Columns and labels:
[1] = target: T1, TDP1 (Homo sapiens, UniProt Q9NUW8); test: Real-time fluorescence assay of TDP1 activity; assay type: biochemical
T1 construct: made in house; host or cells: E. coli
T1 sequence (Q9NUW8 whole entry): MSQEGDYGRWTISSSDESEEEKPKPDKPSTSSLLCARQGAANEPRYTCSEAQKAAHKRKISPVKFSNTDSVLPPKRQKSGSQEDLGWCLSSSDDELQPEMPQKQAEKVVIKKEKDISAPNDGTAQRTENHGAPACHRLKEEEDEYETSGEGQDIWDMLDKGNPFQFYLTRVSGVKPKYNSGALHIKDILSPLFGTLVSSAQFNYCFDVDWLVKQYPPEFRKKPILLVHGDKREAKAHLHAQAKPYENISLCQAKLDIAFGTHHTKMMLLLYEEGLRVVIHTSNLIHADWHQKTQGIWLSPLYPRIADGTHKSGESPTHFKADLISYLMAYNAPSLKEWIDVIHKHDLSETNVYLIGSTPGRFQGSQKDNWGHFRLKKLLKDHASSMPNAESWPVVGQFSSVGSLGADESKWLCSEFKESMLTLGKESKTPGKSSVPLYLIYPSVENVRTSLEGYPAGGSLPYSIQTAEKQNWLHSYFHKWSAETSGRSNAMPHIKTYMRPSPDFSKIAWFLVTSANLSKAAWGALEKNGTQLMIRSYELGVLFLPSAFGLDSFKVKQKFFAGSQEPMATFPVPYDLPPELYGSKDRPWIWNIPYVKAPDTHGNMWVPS
From the text: We tested UA and all 14 newly synthesized UA derivatives for their TDP1 inhibitory properties by measuring their IC50 values using a real-time fluorescent assay. […] Compounds 10a,b are sulfoxide analogs of 7g,h.
Human recombinant tyrosyl-DNA phosphodiesterase 1 (TDP1) and human recombinant poly(ADP-ribose)-polymerase1 (PARP1) were expressed in the E. coli system and purified as described.
The biosensor (5′-[FAM] AAC GTC AGGGTC TTC C [BHQ]-3′) was synthesized in the Laboratory of Nucleic Acid Chemistry at the Institute of Chemical Biology and Fundamental Medicine (Novosibirsk, Russia) and was used for TDP1 enzyme activity real-time fluorescence detection. The reaction mixture (200 μL) contained a TDP1 reaction buffer (50 mM Tris-HCl, pH 8.0, 50 mM NaCl, and 7 mM β-mercaptoethanol), 50 nM oligonucleotide, varied concentrations of the tested compounds, and purified TDP1 in a final concentration 1.5 nM. The reaction mixtures were incubated at a constant temperature of 26 °C in a POLARstar OPTIMA fluorimeter (BMG LABTECH, GmbH, Ortenberg, Germany). Fluorescence intensity was measured (Ex485/Em520 nm) every 1 min for 10 min. The average values of the half maximal inhibitory concentration (IC50) were determined using an eleven-point concentration response curve and calculated using MARS Data Analysis 2.0 (BMG LABTECH). The 50% inhibitory concentration (IC50) was defined as the concentration of the compound that inhibited 50% of the enzyme activity when compared to the untreated controls. At least three independent experiments were carried out to obtain the IC50 values. To determine the kinetic parameters of the TDP1 enzymatic reaction, the apparent maximum rate of enzymatic reaction (Vmax), Michaelis constant (KM), possible inhibition mechanism, and steady-state kinetic experiments were carried out at 5 fixed concentrations of the substrate, with variation in the inhibitor concentrations. The standard reaction mixtures (200 μL) contained reaction buffer components; 50 nM, 100 nM, 200 nM, 500 nM, or 1000 nM substrate; an inhibitor; and 1.5 nM recombinant human TDP1. The initial kinetic curves were obtained in three independent experiments and statistically processed in OriginPro 8.6.0 (OriginLab, Northampton, MA, USA).

[2] = EZ4U colorimetric cytotoxicity test, HeLa; assay type: cell-based, human; conditions: human, HeLa cells; intrinsic cytotoxicity, compound alone, 3 days
From the text: The low intrinsic cytotoxicity of the additional drug component in the clinically used anticancer cocktails with traditional drugs is very important for treatment. This approach in chemotherapy can reduce the potential resulting toxic load on the body in the case of a combined action of these inhibitors on the activity of several targets. […] The effects of the tested compounds on cell survival are shown on Figure 4 and the CC50 values for three cell lines are shown in Table 1. The intrinsic cytotoxicity of a number of the studied compounds is quite high, namely, they have close IC50 values against the TDP1 and CC50 values on one or several studied cell lines. Most of the compounds generally were more toxic for the HEK293FT and HeLa cell lines than for the HEK293A cell line (Table 1 and Figure 4). The cytotoxicity of the three leader compounds, 7g, 10a, and 7h, was quite high. […] Compound 10b was one of the least toxic among the ten tested compounds.
Cytotoxicity of the compounds was examined against human cell lines HEK293A (human embryonic kidney)—WT, TDP1 deficient (Tdp1-/-), PARP1 deficient (PARP1-/-), and HeLa (cervical cancer) using an EZ4U colorimetric test (Biomedica, Vienna, Austria). The HEK293A cell line was obtained from Thermo Fisher Scientific (Waltham, MA, USA), and the HeLa cell line was obtained from the Russian Cell Culture Collection (RCCC) Institute of Cytology RAS, St. Petersburg, Russia. The cells were grown in DMEM/F12 medium (Gibco, Thermo Fisher Scientific, Waltham, MA, USA), with 1x GlutaMAX (Gibco, Thermo Fisher Scientific, Waltham, MA, USA), 50 IU/mL penicillin, 50 μg/mL streptomycin (MP Biomedicals), and in the presence of 10% fetal bovine serum (Biolot, Saint-Petersburg, Russia) in a 5% CO2 atmosphere. Cells were grown in the presence of 1% DMSO in the control wells. After the formation of a 30–50% monolayer, the tested compounds were added to the medium, and the cell culture was monitored for 3 days. The values were normalized to their own control in each case. At least three independent experiments were carried out. The 50% cytotoxic concentration (CC50) was defined as the compound concentration that reduced the cell viability by 50% when compared to the untreated controls. The compound concentration that caused 50% cell growth inhibition was determined using OriginPro 8.6.0 software (OriginLab, Northampton, MA, USA). The measurements were carried out in three independent experiments.

| Structure (SMILES) | IC50 [1] | TDP1 inhibition (in words) ([1]; in the concentration range of the derivatives' IC50) | CC50 at 3 days [2] | IC50 ([1]; real-time fluorescent assay, 1.5 nM TDP1, 50 nM oligonucleotide, read-out: IC50 (TDP1)) |
| --- | --- | --- | --- | --- |
| CC(=O)c1c(O)c(C)c(O)c2c1OC1=CC(=O)C(C(C)=O)C(=O)C12C (centres unmarked) [UA, usnic acid] | > 50 µM | does not inhibit TDP1 | 20 ± 10 µM |  |
| CC(=O)C1=C(O)C=C2Oc3c(C(=O)C[S+]([O-])c4nc5ccccc5s4)c(O)c(C)c(O)c3[C@@]2(C)C1=O (stereo partly drawn) [10a, (2R)-4-acetyl-10-[2-(1,3-benzothiazole-2-sulfinyl)acetyl]-5,11,13-trihydroxy-2,12-dimethyl-8-oxatricyclo[7.4.0.0^2,7]trideca-1(13),4,6,9,11-pentaen-3-one] |  |  | 15 ± 1 µM | 2.1 ± 0.2 µM |
